By Ki is commonly meant the equilibrium dissociation constant of an inhibitor or competing ligand from its target. Usually IC50 stands for the point on the concentration scale where inhibition reaches its midpoint.

“Also recorded” adds a separate entry of the source.

In assay [1] the test system is wild type mice. The experiment in a line: Touch sensitivity (Von Frey filaments) after injection in the Zusanli point of wild type mice. Format: in vivo. To be noted: 5 mM injected in Zusanli point, tested one hour after injection. The protocol: Using Von Frey Filaments, a baseline for pain threshold was established in the wild type. The mice were then injected with 5 mM of dibut 1-cAMP (db-cAMP) in the zunsanli accu-point. To ensure the proper spread of db cAMP, the mice were tested for pain one hour after injections and assessed for touch sensitivity. The experiment was repeated in the same animals 24 h later and yielded similar results.
Mechanical allodynia was evaluated using repeated stimulations with a Von Frey filament exerting 0.02 grams of force onto the plantar surface (Colburn et al., “The Effect of Site and Type of Nerve Injury on Spinal Glial Activation and Neuropathic Pain Behavior,” Exp. Neurol. 157:289-304. (1999), which is hereby incorporated by reference in its entirety). The percentage of negative responses of a total of 10 trials was calculated for each foot. Thermal hyperalgesia was assessed using an Analgesymeter (Ugo Basile, Comerio, Italy) (Stein et al., “Intrinsic Mechanisms of Antinociception in Inflammation: Local Opioid Receptors and Beta-Endorphin,” J. Neurosci. 10:1292-1298 (1990), which is hereby incorporated by reference in its entirety). […] The paw withdrawal was repeated three times for each foot and the average calculated. […]

Assay [2] deals with adenosine transport. To be noted: adenosine transport inhibitors; unit inferred; cited from earlier work.
Assay [3] has as its system mice with inflammatory pain (CFA). Briefly: Inflammatory pain (CFA in paw): mechanical allodynia (Von Frey) and thermal hyperalgesia. Format: in vivo. The text has this: Peripheral inflammation was induced by injection of Complete Freud Adjuvant (CFA, mixed with an equal amount of oil, […], Jackson labs) (Raghavendra et al., “Complete Freunds Adjuvant-Induced Peripheral Inflammation Evokes Glial Activation and Proinflammatory Cytokine Expression in the CNS,” Eur. J. Neurosci. 20:467-473 (2004), which is hereby incorporated by reference in its entirety). […] Neuropathic pain was induced by ligation of the sciatic nerve with 4.0 polypropylene suture in mice sedated with ketamine (60 mg/kg, i.p.) and xylazine (10 mg/kg, i.p.) (Bennett et al., “A Peripheral Mononeuropathy in Rat that Produces Disorders of Pain Sensation Like Those Seen in Man,” Pain 33:87-107 (1988); Martucci et al., “The Purinergic Antagonist PPADS Reduces Pain Related Behaviours and Interleukin-1 beta, Interleukin-6, iNOS and nNOS Overproduction in Central and Peripheral Nervous System After Peripheral Neuropathy in Mice,” Pain 137:81-95 (2008), which are hereby incorporated by reference in their entirety).
Mechanical allodynia was evaluated using repeated stimulations with a Von Frey filament exerting 0.02 grams of force onto the plantar surface (Colburn et al., “The Effect of Site and Type of Nerve Injury on Spinal Glial Activation and Neuropathic Pain Behavior,” Exp. Neurol. 157:289-304. (1999), which is hereby incorporated by reference in its entirety). The percentage of negative responses of a total of 10 trials was calculated for each foot. Thermal hyperalgesia was assessed using an Analgesymeter (Ugo Basile, Comerio, Italy) (Stein et al., “Intrinsic Mechanisms of Antinociception in Inflammation: Local Opioid Receptors and Beta-Endorphin,” J. Neurosci. 10:1292-1298 (1990), which is hereby incorporated by reference in its entirety). In short, a mobile radiant heat source was focused on the hind paw, and the paw withdrawal latencies were defined as the time taken by the mouse to remove its hind paw from the heat source (max 20 sec to avoid tissue damage). The paw withdrawal was repeated three times for each foot and the average calculated. To avoid conditioning to stimulation a 5 min rest period was interposed between each trial in both thermal and mechanical tests. Behavioral parameters were evaluated prior to intraplantar injection of CFA or nerve ligation (i.e. day 0), and again on day 3-4 in mice receiving the CFA injection, and at day 5-7 in mice with nerve ligation unless otherwise noted. Prior to injection of CCPA, saline, or acupuncture in the Zusanli point, the mice were placed in a restraining under light isoflurane anesthesia (˜1%). The total duration of anesthesia was ˜2 min and mice with inflammatory, neurogenic pain, and their controls were treated similarly. 2-chloro-N6-cyclopentyl-adenosine (CCPA, 0.1 mM, 20 μl) was injected in the Zusanli point ˜5 min before acupuncture. […] The needle was slowly rotated ˜2 time (˜20-30 sec) every 5 min for a total of 30 min during an acupuncture session. A microdialysis probe (MD-2211, Bioanalytical systems, West Lafayette, Ind.) was implanted 1-3 hrs prior to collection of microdialysis samples. The microdialysis probe was implanted in a distance of 0.4-0.6 mm from the Zusanli point. The microdialysis probe was perfused with Ringer's solution at a rate of 1 μl per minute. The microdialysates were collected on ice and the perfusate collected over a 30 min period (30 μl) was immediately frozen at −80° C. until HPLC analysis. Deoxycoformycin was administered in a dose of 50 mg/kg i.p. 30 min prior to acupuncture.

In assay [4] the test system is fEPSP in anterior cingulate cortex. Briefly: In vivo electrophysiology: fEPSP in left anterior cingulate cortex evoked by painful foot shock. Details: species or system mice. The protocol:
Mice were anaesthetized with 2-3% isoflurane, intubated, and artificially ventilated with a small animal ventilator (SAAR-830, CWE). Body temperature was monitored by a rectal probe and maintained at 37° C. by a heating blanket (BS4, Harvard Apparatus). A craniotomy (1-1.5 mm in diameter), centered 0.1 mm anterior to the bregma and 1.5 mm lateral from midline, was made over the left anterior cingulated cortex. A custom-made metal plate was glued to the skull with dental acrylic cement. The mice were for the remaining part of the experiment maintained at 2% isoflurane. LFP recordings were obtained from layer 4 of anterior cingulate cortex (ACC), 0.8 mm below the pial surface by a patch pipette (TW100E-4, WPI; outer diameter, 1.0 mm; inner diameter, 0.75 mm; tip diameter, 1-2 μm). […] Dura matter was kept intact. A custom-made bipolar electrode was inserted subcutaneously into the right hindpaw. High intensity stimulation (10 mA, 20 ms) were evoked every 120 sec. Lower stimulation intensities evoked either no or variable responses consistent with the idea that that ACC neurons respond primarily to painful stimuli Wei et al., “Potentiation of Sensory Responses in the Anterior Cingulate Cortex Following Digit Amputation in the Anaesthetised Rat,” J. Physiol. 532:823-833 (2001), which is hereby incorporated by reference in its entirety). The amplitude of the field EPSPs was measured using the pCLAMP 9.2 program (Axon Instruments, Inc., Foster City, Calif., USA).

For assay [5], the system named is mice with neuropathic pain. The experiment in a line: Neuropathic pain (sciatic nerve ligation): mechanical allodynia and thermal hyperalgesia. Type of assay: in vivo. How it is done: Peripheral inflammation was induced by injection of Complete Freud Adjuvant (CFA, mixed with an equal amount of oil, total volume 0.1 ml) in the plantar surface of the left hind paw of mice (25-30 g, Jackson labs) (Raghavendra et al., “Complete Freunds Adjuvant-Induced Peripheral Inflammation Evokes Glial Activation and Proinflammatory Cytokine Expression in the CNS,” Eur. J. Neurosci. 20:467-473 (2004), which is hereby incorporated by reference in its entirety). An equal amount of saline (0.1 ml) was injected in the right hind paw as control. Neuropathic pain was induced by ligation of the sciatic nerve with 4.0 polypropylene suture in mice sedated with ketamine (60 mg/kg, i.p.) and xylazine (10 mg/kg, i.p.) (Bennett et al., “A Peripheral Mononeuropathy in Rat that Produces Disorders of Pain Sensation Like Those Seen in Man,” Pain 33:87-107 (1988); Martucci et al., “The Purinergic Antagonist PPADS Reduces Pain Related Behaviours and Interleukin-1 beta, Interleukin-6, iNOS and nNOS Overproduction in Central and Peripheral Nervous System After Peripheral Neuropathy in Mice,” Pain 137:81-95 (2008), which are hereby incorporated by reference in their entirety).
Mechanical allodynia was evaluated using repeated stimulations with a Von Frey filament exerting 0.02 grams of force onto the plantar surface (Colburn et al., “The Effect of Site and Type of Nerve Injury on Spinal Glial Activation and Neuropathic Pain Behavior,” Exp. Neurol. 157:289-304. (1999), which is hereby incorporated by reference in its entirety). The percentage of negative responses of a total of 10 trials was calculated for each foot. Thermal hyperalgesia was assessed using an Analgesymeter (Ugo Basile, Comerio, Italy) (Stein et al., “Intrinsic Mechanisms of Antinociception in Inflammation: Local Opioid Receptors and Beta-Endorphin,” J. Neurosci. 10:1292-1298 (1990), which is hereby incorporated by reference in its entirety). In short, a mobile radiant heat source was focused on the hind paw, and the paw withdrawal latencies were defined as the time taken by the mouse to remove its hind paw from the heat source (max 20 sec to avoid tissue damage). The paw withdrawal was repeated three times for each foot and the average calculated. To avoid conditioning to stimulation a 5 min rest period was interposed between each trial in both thermal and mechanical tests. Behavioral parameters were evaluated prior to intraplantar injection of CFA or nerve ligation (i.e. day 0), and again on day 3-4 in mice receiving the CFA injection, and at day 5-7 in mice with nerve ligation unless otherwise noted. Prior to injection of CCPA, saline, or acupuncture in the Zusanli point, the mice were placed in a restraining under light isoflurane anesthesia (˜1%). […]

In assay [6] the test system is mice with inflammatory or neuropathic pain. The experiment in a line: Statements covering both inflammatory and neuropathic pain models. Type of assay: in vivo. To be noted: both pain models. How it is done:
Peripheral inflammation was induced by injection of Complete Freud Adjuvant (CFA, mixed with an equal amount of oil, total volume 0.1 ml) in the plantar surface of the left hind paw of mice (25-30 g, Jackson labs) (Raghavendra et al., “Complete Freunds Adjuvant-Induced Peripheral Inflammation Evokes Glial Activation and Proinflammatory Cytokine Expression in the CNS,” Eur. J. Neurosci. 20:467-473 (2004), which is hereby incorporated by reference in its entirety). An equal amount of saline (0.1 ml) was injected in the right hind paw as control. […]
Mechanical allodynia was evaluated using repeated stimulations with a Von Frey filament exerting 0.02 grams of force onto the plantar surface (Colburn et al., “The Effect of Site and Type of Nerve Injury on Spinal Glial Activation and Neuropathic Pain Behavior,” Exp. Neurol. 157:289-304. (1999), which is hereby incorporated by reference in its entirety). The percentage of negative responses of a total of 10 trials was calculated for each foot. Thermal hyperalgesia was assessed using an Analgesymeter (Ugo Basile, Comerio, Italy) (Stein et al., “Intrinsic Mechanisms of Antinociception in Inflammation: Local Opioid Receptors and Beta-Endorphin,” J. Neurosci. 10:1292-1298 (1990), which is hereby incorporated by reference in its entirety). […] The paw withdrawal was repeated three times for each foot and the average calculated. […] Behavioral parameters were evaluated prior to intraplantar injection of CFA or nerve ligation (i.e. day 0), and again on day 3-4 in mice receiving the CFA injection, and at day 5-7 in mice with nerve ligation unless otherwise noted. […]

The target of assay [7] is Ecto-ATPase. The following applies: Crack et al.; cited from earlier work.
In assay [8] the target is Rat Parotid Ecto-ATPase. To be noted: cited from earlier work.
The target of assay [9] is Ecto-ATPase. The following applies: cited from earlier work.
For assay [10], the system named is P2 receptors. The following applies: cited from earlier work.

Consider `CCCC(=O)Nc1ncnc2c1ncn2[C@@H]1O[C@@H]2COP(=O)(O)O[C@H]2[C@H]1OC(=O)CCC` [dibutyryl cAMP], for which the sensitivity to touch result in assay [1] was “increased transiently”.
Turning to `NC(=O)C1CN(CCCCC(c2ccc(F)cc2)c2ccc(F)cc2)CCN1CC(=O)Nc1c(Cl)cc(N)cc1Cl` (stereo not shown) [R75231, 2-(aminocarbonyl)-N-(4-amino-2,6-dichlorophenyl)-4-[5,5-bis(4-fluorophenyl)pentyl]-1-piperazineacetamide], in assay [2], the Ki is 0.1 nM.
On to `OC[C@H]1O[C@@H](n2cnc3c(NC4CCCC4)nc(Cl)nc32)[C@H](O)[C@@H]1O` [CCPA, 2-chloro-N(6)-cyclopentyladenosine], for which the “mechanical and thermal hypersensitivity / pain threshold in right foot” value is “no effect; also recorded: did not alter the pain threshold” in assay [3] (0.1 mM, 20 μl injected in the left (contralateral) Zusanli point) and “no effect; also recorded: did not alter the pain threshold” in assay [5] (injected in the left (contralateral) Zusanli point). Besides, in [3] (A1R KO mice), the “mechanical and thermal pain in mice with deletion of A1 receptors” value is “no clinical benefit”. The “paw withdrawal (thermal)” value in assay [3] (WT mice, after 0.1 mM, 20 μl in right Zusanli point, before: 3.7±0.3) came to 12.7 ± 1.5 s. Besides, the “touch sensitivity (percentage of negative responses of 10 Von Frey trials)” value is given as 85.7±2.0% in assay [3] (WT mice, after 0.1 mM, 20 μl in right Zusanli point, before: 38.0±2.5) and 83.3±4.9% in assay [5] (WT mice, after injection in Zusanli point, before: 25.0±2.2). Moreover, in assay [4] (A1R KO mice), the “fEPSP response in mice with deletion of A1 receptors” value is listed as “failed to respond”. For the same compound, in assay [4] (WT, 0.1 mM 20 μl in right Zusanli point (ipsilateral), within 20 min, before ~0.65 mV), the fEPSP amplitude is recorded as roughly 0.22 mV. The “fEPSP amplitude, % of baseline values” in assay [4] (WT, ipsilateral injection, within 20 min) came to 26.6±11.0%. Moreover, in [4] (administered contralateral to the painful stimulation), the “effect on fEPSP” value was “no effect”. Moreover, the “withdrawal of foot (thermal)” value in [5] (WT mice, after injection in Zusanli point, before: 2.9±0.3) is 16.2 ± 2.4 s. Also, in assay [6], the “course of the pain-relieving effect” value is reported as “transient”. The “sensitivity to painful stimulation in the contralateral (left) leg” value in assay [6] (injection in right Zusanli point) is reported as “did not alter sensitivity”.
For `CCN(CC)c1ncnc2c1ncn2[C@@H]1O[C@H](COP(=O)(O)OP(=O)(O)C(Br)(Br)P(=O)(O)O)[C@@H](O)[C@H]1O` [ARL67156], the IC50 in [7] was 4600 nM; in assay [8], 120000 nM. Also, the Ki in assay [9] was 255 nM. In addition, the “effect on P2 receptors” value in [10] is listed as “lack of or only has weak effect”.

These data come from patent publication US20130005676A1 (UNIVERSITY OF ROCHESTER, priority 2009, published 2013).
